Residue numbers refer to the chain shown, from its start. “And” between values parts separate entries of the source, which are not always exact repeats. Equal entries are not always repeated.
Experiments:
[1] = molecular target: T1, glutaminase in live (intact) neurons (Mus musculus, UniProt D3Z7P3); type: cell-based, mouse (Swiss Webster)
T1 sequence (D3Z7P3 55-674): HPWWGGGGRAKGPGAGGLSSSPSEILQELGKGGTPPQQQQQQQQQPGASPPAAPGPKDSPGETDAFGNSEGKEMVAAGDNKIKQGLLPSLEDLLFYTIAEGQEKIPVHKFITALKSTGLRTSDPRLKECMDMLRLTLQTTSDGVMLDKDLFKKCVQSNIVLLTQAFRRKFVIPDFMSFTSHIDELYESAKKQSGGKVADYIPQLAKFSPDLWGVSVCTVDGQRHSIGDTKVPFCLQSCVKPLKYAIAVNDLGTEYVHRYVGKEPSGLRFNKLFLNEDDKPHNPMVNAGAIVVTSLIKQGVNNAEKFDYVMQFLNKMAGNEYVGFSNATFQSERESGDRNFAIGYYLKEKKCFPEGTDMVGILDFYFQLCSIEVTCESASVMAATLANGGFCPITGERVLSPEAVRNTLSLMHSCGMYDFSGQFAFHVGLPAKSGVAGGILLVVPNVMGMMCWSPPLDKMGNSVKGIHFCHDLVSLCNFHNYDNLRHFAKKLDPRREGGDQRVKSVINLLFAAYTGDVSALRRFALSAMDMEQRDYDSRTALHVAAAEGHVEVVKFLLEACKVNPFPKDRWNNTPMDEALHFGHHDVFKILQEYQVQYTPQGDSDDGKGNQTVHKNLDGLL

[2] = molecular target: T2, glutaminase in damaged neurons (Mus musculus, UniProt D3Z7P3)
T2 sequence (D3Z7P3 73-674 limits assumed): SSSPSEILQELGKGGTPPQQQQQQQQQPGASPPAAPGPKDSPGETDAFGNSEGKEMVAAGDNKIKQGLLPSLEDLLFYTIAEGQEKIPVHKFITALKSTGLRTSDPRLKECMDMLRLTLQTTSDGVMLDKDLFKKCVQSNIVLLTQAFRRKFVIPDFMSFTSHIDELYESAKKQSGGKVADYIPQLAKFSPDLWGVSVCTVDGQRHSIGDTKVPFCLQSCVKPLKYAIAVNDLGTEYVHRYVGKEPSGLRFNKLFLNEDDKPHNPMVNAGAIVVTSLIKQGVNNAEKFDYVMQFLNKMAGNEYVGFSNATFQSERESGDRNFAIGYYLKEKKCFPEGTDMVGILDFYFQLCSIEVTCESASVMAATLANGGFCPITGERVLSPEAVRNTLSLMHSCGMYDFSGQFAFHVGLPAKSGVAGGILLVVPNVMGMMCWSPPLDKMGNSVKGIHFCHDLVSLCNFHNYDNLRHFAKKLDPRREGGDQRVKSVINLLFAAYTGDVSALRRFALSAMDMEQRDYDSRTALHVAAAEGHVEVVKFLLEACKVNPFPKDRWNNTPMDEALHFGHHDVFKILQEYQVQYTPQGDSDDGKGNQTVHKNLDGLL

[3] = system: neuronal cells in culture
[4] = system: hippocampal slices (field potential)
[5] = Huber; cited from earlier work
[6] = Kaneko et al. 1992; cited from earlier work
[7] = molecular target: T3, glutaminase (brain membranes) (Rattus norvegicus, UniProt P13264); assay: biochemical
T3 construct: Membranes are prepared by homogenization of brain tissue in 330 mM sucrose; from tissue; host or cells: rat brain, crude membranes (17000 G pellet)
T3 sequence (P13264 73-674 limits assumed): T2 sequence (D3Z7P3 73-674 limits assumed) with I64V, G590E

neuronal cultures = assay: Glutamate uptake (clearance) by neuronal cultures; type: cell-based, mouse (Swiss Webster); conditions: intact neurons
Description: (§1) This allows expression of medium glutamate concentrations as:
(§2) where [Glu], in units of μM, is the concentration of glutamate in the 0.4 ml of medium in a culture well, S (in μM/min) is the rate of addition of glutamate to the culture medium from cellular sources, and k (in min^-1) is the empirically determined rate constant for clearance (Roberts). […] Although the value of k is proportional to cell (carrier) density, little variation is expected in cultures containing glia, as glial cultures are confluent.
as §2, with “(Roberts, D. V. (1977) Enzyme Kinetics, Cambridge University Press, Cambridge, pp23-30.).” for “(Roberts).”, “glia” for “glia,”

[8] = system: glial cultures (astrocytes); type: cell-based, mouse (Swiss Webster)
[9] = system: mixed glial-neuronal cultures; assay: Glutamate uptake (clearance) by mixed glial-neuronal cultures; type: cell-based, mouse (Swiss Webster)
Description: as §1, §2
as §2, with “(Roberts, D. V. (1977) Enzyme Kinetics, Cambridge University Press, Cambridge, pp23-30.).” for “(Roberts).”, “glia” for “glia,”

[10] = system: glial cultures (astrocytes); conditions: Hertz; Drejer; read-out: Km for cellular uptake of glutamate; cited from earlier work
isolated neurons = conditions: Rosenberg; Dugan et al., 1995; read-out: IC50 for toxicity of glutamate on isolated neurons; cited from earlier work
[11] = system: mixed neuronal-astrocyte cultures
[12] = system: mixed neuronal-astrocyte cultures; assay: cells; conditions: Mus musculus, 24 h, read-out: % cell death (LDH)
[13] = system: neuronal cells in culture; assay: cells; conditions: Mus musculus, read-out: LDH release by NMDA exposure relative to freeze-thaw
[14] = system: ischemic penumbra (dialysate glutamate); assay: In vivo microdialysis of ischemic penumbra after MCAO; parameters: species or system rat; conditions: subsequent perfusion of phosphate; ±400%
Description: In further microdialysis experiments, exogenous glutamine was added to the ischemic penumbra via the probe, and dialysis glutamate was measured, as described in Example 7. When 10 mM glutamine plus 20 mM sodium phosphate were perfused into the penumbra for one hour, dialysate glutamate was elevated 315% as compared to control (±115%). […] The effects on glutamate were much more pronounced than on other amino acids measured; therefore, these studies provided further support for the involvement of extracellular glutaminase activity in producing the elevated levels of glutamate in cortical tissue undergoing ischemic damage.
The middle cerebral arteries of rats were occluded as in EXAMPLE 7, and the rats were returned to their cages overnight. The next morning, dialysis probes ([…], 2 mm length, 20,000 dalton cutoff) were inserted into ischemic penumbra (cortex) and perfused with artificial CSF at 3 μl/min for 1 h prior to collection of 10 minute fractions of dialysate. The effectiveness of the occlusion and the placement of probes were verified by TTC staining of 1 mm sections at the conclusion of the experiment. Amino acids in the dialysate were measured by reverse phase HPLC with fluorescence detection, after derivatization of the dialysates with o-phthaldialdehyde and N-acetyl-L-cysteine […]

## [N-]=[N+]=CC(=O)CC[C@H](N)C(=O)O [DON, 6-diazo-5-oxo-L-norleucine]
[1]
  effect on glutaminase activity of intact/live neurons (in words): inhibition of glutaminase
  glutamate production after neuronal death: 0.23 ± 0.03 μM Glu/min and 0.15 ± 0.02 μM Glu/min
[2]
  inhibition of glutamate production: 90% and 50%
  inhibition of glutaminase activity in damaged cells (in words): inhibit glutaminase activity in damaged cells
[3]
  LDH release from neuronal cells (in words): resulted in release of lactate dehydrogenase from the cells, indicating cellular toxicity and death
[4]
  effect on hippocampal field potential (in words): decreased the magnitude and prolonged the duration of the field potential
[5]
  crossing of cell membranes (in words): readily cross cell membranes
[6]
  toxicity and tissue penetration after CNS administration (in words): toxicity and poor tissue penetration

## N[C@@H](CCC(=O)O)C(=O)O [L-glutamic acid]
[7]
  glutaminase inhibition (in words): no significant effect on enzyme activity at 3.3 mM
[7]; read-out: Glutaminase Activity
  activity at 1000 µM: 105 ± 15%
  activity at 3300 µM: 113 ± 32%
Neuronal cultures
  Glutamate uptake (k): 0.012 min⁻¹
[8]
  Glutamate uptake (k): 0.083
  first order rate constant for glutamate uptake: 0.083 min⁻¹
  glutamate uptake rate of glial vs neuronal cultures: about 7 times
[9]; 15 μM glutamate
  first order rate constant for glutamate uptake: 0.072 min⁻¹
[9]; Table 2, glial-neuronal
  Glutamate uptake (k): 0.072
[10]
  Km: ~45 µM
Isolated neurons
  IC50: 5 to 10 µM

## CN[C@H](CC(=O)O)C(=O)O [NMDA, N-methyl-D-aspartate]
[11]
  Glu: 7.0 ± 0.6
[12]
  cytotoxicity at 500 µM: 100%
[13]
  cytotoxicity at 500 µM: ~85%

## O=P(O)(O)O [phosphate, sodium phosphate]
[14]
  dialysate glutamate, % of control: 845 % of control
[2]; mixed neuronal-glial cultures, 20000 µM
  increase of glutamate generation: 8 fold

Reference: patent US6310093A (priority 1998, dated 2001)
